Experimental findings from the OligoGym collection are described below.

Several values for one entry are separate records, joined by “and”; a condition that tells them apart may be missing. Equal entries are not always repeated. HELM strings list units from the 5' end as sugar, base in round brackets, then linkage (d deoxyribose, r ribose, m 2'-O-methyl, p phosphodiester). Strings are as the collection lists them, not checked against the first reports. ss, as = sense and antisense strand; [lna] = locked nucleic acid (LNA); [s4r] = 4'-thioribose
Also: test system not given here.

The conditions of the data set: siRNA.
Regarding “RNA1{[lna](G)p.r(G)p.r(C)p.r(C)p.r(U)p.r(U)p.r(U)p.r(C)p.r(A)p.r(C)p.r(U)p.r(A)p.r(C)p.r(U)p.r(C)p.r(C)p.r(U)p.r(A)p.r(C)p.r(G)p.r(A)}|RNA2{r(G)p.r(U)p.r(A)p.r(G)p.r(G)p.r(A)p.r(G)p.r(U)p.r(A)p.r(G)p.r(U)p.r(G)p.r(A)p.r(A)p.r(A)p.r(G)p.r(G)p.r(C)p.r(C)p.r(A)p.r(G)}$$$RNA1{StrandType:ss}|RNA2{StrandType:as}$”, the target mRNA knockdown turned out to be 86%. The substance “RNA1{[lna](T)p.r(C)p.r(C)p.r(A)p.r(G)p.r(A)p.r(A)p.r(C)p.r(A)p.r(A)p.r(A)p.r(G)p.r(G)p.r(A)p.r(A)p.r(A)p.r(C)p.r(G)p.r(G)p.[lna](T)p.[lna](T)}|RNA2{r(C)p.r(C)p.r(G)p.r(U)p.r(U)p.r(U)p.r(C)p.r(C)p.r(U)p.r(U)p.r(U)p.r(G)p.r(U)p.r(U)p.r(C)p.r(U)p.r(G)p.r(G)p.r(A)p.r(T)p.r(T)}$$$RNA1{StrandType:ss}|RNA2{StrandType:as}$” had a target mRNA knockdown of 50%. “RNA1{[lna](T)p.r(G)p.[lna](A)p.r(G)p.[lna](A)p.r(G)p.r(A)p.r(A)p.[lna](A)p.r(G)p.r(C)p.[lna](A)p.r(C)p.[lna](A)p.r(G)p.r(A)p.[lna](A)p.r(A)p.r(A)p.[lna](T)p.[lna](T)}|RNA2{r(U)p.r(G)p.r(A)p.r(G)p.r(A)p.r(G)p.r(A)p.r(A)p.r(A)p.r(G)p.r(C)p.r(A)p.r(C)p.r(A)p.r(G)p.r(A)p.r(A)p.r(A)p.r(A)p.d(T)p.d(T)}$$$RNA1{StrandType:ss}|RNA2{StrandType:as}$” had a target mRNA knockdown of 64%. The value for “RNA1{[lna](T)p.r(G)p.[lna](A)p.r(G)p.[lna](A)p.r(G)p.r(A)p.r(A)p.[lna](A)p.r(G)p.r(C)p.[lna](A)p.r(C)p.[lna](A)p.r(G)p.r(A)p.[lna](A)p.r(A)p.r(A)p.[lna](T)p.[lna](T)}|RNA2{r(U)p.r(U)p.r(U)p.r(U)p.r(C)p.r(U)p.r(G)p.r(U)p.r(G)p.r(C)p.r(U)p.r(U)p.r(U)p.r(C)p.r(U)p.r(C)p.r(U)p.r(C)p.r(A)p.r(T)p.r(T)}$$$RNA1{StrandType:ss}|RNA2{StrandType:as}$” was 68%; that for “RNA1{[lna](T)p.r(G)p.r(A)p.r(G)p.r(A)p.r(G)p.r(A)p.r(A)p.r(A)p.r(G)p.r(C)p.r(A)p.r(C)p.r(A)p.r(G)p.r(A)p.r(A)p.r(A)p.r(A)p.[lna](T)p.[lna](T)}|RNA2{[lna](T)p.r(U)p.r(U)p.r(U)p.r(C)p.r(U)p.r(G)p.r(U)p.r(G)p.r(C)p.r(U)p.r(U)p.r(U)p.r(C)p.r(U)p.r(C)p.r(U)p.r(C)p.r(A)p.[lna](T)p.[lna](T)}$$$RNA1{StrandType:ss}|RNA2{StrandType:as}$” was 67% and 72%. The substance “RNA1{[lna](T)p.r(G)p.r(A)p.r(G)p.r(A)p.r(G)p.r(A)p.r(A)p.r(A)p.r(G)p.r(C)p.r(A)p.r(C)p.r(A)p.r(G)p.r(A)p.r(A)p.r(A)p.r(A)p.[lna](T)p.[lna](T)}|RNA2{r(U)p.r(U)p.r(U)p.r(U)p.r(C)p.r(U)p.r(G)p.r(U)p.r(G)p.r(C)p.r(U)p.r(U)p.r(U)p.r(C)p.r(U)p.r(C)p.r(U)p.r(C)p.r(A)p.d(T)p.d(T)}$$$RNA1{StrandType:ss}|RNA2{StrandType:as}$” displayed a target mRNA knockdown of 70%.

In the case of “RNA1{[lna](T)p.r(G)p.r(A)p.r(G)p.r(A)p.r(G)p.r(A)p.r(A)p.r(A)p.r(G)p.r(C)p.r(A)p.r(C)p.r(A)p.r(G)p.r(A)p.r(A)p.r(A)p.r(A)p.[lna](T)p.[lna](T)}|RNA2{r(U)p.r(U)p.r(U)p.r(U)p.r(C)p.r(U)p.r(G)p.r(U)p.r(G)p.r(C)p.r(U)p.r(U)p.r(U)p.r(C)p.r(U)p.r(C)p.r(U)p.r(C)p.r(A)p.r(T)p.r(T)}$$$RNA1{StrandType:ss}|RNA2{StrandType:as}$”, the target mRNA knockdown was 74%.

Regarding “RNA1{[s4r](A)p.[s4r](A)p.[s4r](A)p.[s4r](C)p.[s4r](A)p.[s4r](U)p.r(G)p.r(C)p.r(A)p.r(G)p.r(A)p.r(A)p.r(A)p.[s4r](A)p.[s4r](U)p.[s4r](G)p.[s4r](C)p.[s4r](U)p.[s4r](G)p.r(T)p.r(T)}|RNA2{r(C)p.r(A)p.r(G)p.r(C)p.r(A)p.r(U)p.r(U)p.r(U)p.r(U)p.r(C)p.r(U)p.r(G)p.r(C)p.r(A)p.r(U)p.[s4r](G)p.[s4r](U)p.[s4r](U)p.[s4r](U)p.r(T)p.r(T)}$$$RNA1{StrandType:ss}|RNA2{StrandType:as}$”, the target mRNA knockdown stood at 84.4%. Take “RNA1{[s4r](A)p.[s4r](A)p.[s4r](A)p.[s4r](C)p.[s4r](A)p.[s4r](U)p.r(G)p.r(C)p.r(A)p.r(G)p.r(A)p.r(A)p.r(A)p.[s4r](A)p.[s4r](U)p.[s4r](G)p.[s4r](C)p.[s4r](U)p.[s4r](G)p.r(T)p.r(T)}|RNA2{r(C)p.r(A)p.r(G)p.r(C)p.r(A)p.r(U)p.r(U)p.r(U)p.r(U)p.r(C)p.r(U)p.r(G)p.r(C)p.r(A)p.r(U)p.r(G)p.r(U)p.r(U)p.r(U)p.r(T)p.r(T)}$$$RNA1{StrandType:ss}|RNA2{StrandType:as}$”: the target mRNA knockdown is 75.4% and 87%. In turn, “RNA1{[s4r](A)p.[s4r](A)p.[s4r](A)p.[s4r](C)p.r(A)p.r(U)p.r(G)p.r(C)p.r(A)p.r(G)p.r(A)p.r(A)p.r(A)p.r(A)p.r(U)p.[s4r](A)p.[s4r](C)p.[s4r](C)p.[s4r](U)p.r(T)p.r(T)}|RNA2{[s4r](C)p.[s4r](A)p.r(G)p.r(C)p.r(A)p.r(U)p.r(U)p.r(U)p.r(U)p.r(C)p.r(U)p.r(G)p.r(C)p.r(A)p.r(U)p.r(G)p.r(U)p.[s4r](U)p.[s4r](U)p.r(T)p.r(T)}$$$RNA1{StrandType:ss}|RNA2{StrandType:as}$” yielded a target mRNA knockdown of 80.8%. “RNA1{[s4r](A)p.[s4r](A)p.[s4r](A)p.[s4r](C)p.r(A)p.r(U)p.r(G)p.r(C)p.r(A)p.r(G)p.r(A)p.r(A)p.r(A)p.r(A)p.r(U)p.[s4r](G)p.[s4r](C)p.[s4r](C)p.[s4r](U)p.r(T)p.r(T)}|RNA2{r(C)p.r(A)p.r(G)p.r(C)p.r(A)p.r(U)p.r(U)p.r(U)p.r(U)p.r(C)p.r(U)p.r(G)p.r(C)p.r(A)p.r(U)p.[s4r](G)p.[s4r](U)p.[s4r](U)p.[s4r](U)p.r(T)p.r(T)}$$$RNA1{StrandType:ss}|RNA2{StrandType:as}$” yielded a target mRNA knockdown of 87.3%. In turn, “RNA1{[s4r](A)p.[s4r](A)p.[s4r](A)p.[s4r](C)p.r(A)p.r(U)p.r(G)p.r(C)p.r(A)p.r(G)p.r(A)p.r(A)p.r(A)p.r(A)p.r(U)p.[s4r](G)p.[s4r](C)p.[s4r](C)p.[s4r](U)p.r(T)p.r(T)}|RNA2{r(C)p.r(A)p.r(G)p.r(C)p.r(A)p.r(U)p.r(U)p.r(U)p.r(U)p.r(C)p.r(U)p.r(G)p.r(C)p.r(A)p.r(U)p.r(G)p.r(U)p.[s4r](U)p.[s4r](U)p.r(T)p.r(T)}$$$RNA1{StrandType:ss}|RNA2{StrandType:as}$” returned a target mRNA knockdown of 87.7%.

Substance “RNA1{[s4r](A)p.[s4r](A)p.[s4r](A)p.[s4r](C)p.r(A)p.r(U)p.r(G)p.r(C)p.r(A)p.r(G)p.r(A)p.r(A)p.r(A)p.r(A)p.r(U)p.[s4r](G)p.[s4r](C)p.[s4r](U)p.[s4r](G)p.r(T)p.r(T)}|RNA2{[s4r](C)p.[s4r](A)p.r(G)p.r(C)p.r(A)p.r(U)p.r(U)p.r(U)p.r(U)p.r(C)p.r(U)p.r(G)p.r(C)p.r(A)p.r(U)p.r(G)p.r(U)p.[s4r](U)p.[s4r](U)p.r(T)p.r(T)}$$$RNA1{StrandType:ss}|RNA2{StrandType:as}$” showed a target mRNA knockdown of 66.3%. For the substance “RNA1{[s4r](A)p.[s4r](A)p.[s4r](A)p.[s4r](C)p.r(A)p.r(U)p.r(G)p.r(C)p.r(A)p.r(G)p.r(A)p.r(A)p.r(A)p.r(A)p.r(U)p.[s4r](G)p.[s4r](C)p.[s4r](U)p.[s4r](G)p.r(T)p.r(T)}|RNA2{r(C)p.r(A)p.r(G)p.r(C)p.r(A)p.r(U)p.r(U)p.r(U)p.r(U)p.r(C)p.r(U)p.r(G)p.r(C)p.r(A)p.r(U)p.[s4r](G)p.[s4r](U)p.[s4r](U)p.[s4r](U)p.r(T)p.r(T)}$$$RNA1{StrandType:ss}|RNA2{StrandType:as}$”, the target mRNA knockdown amounted to 91%. “RNA1{[s4r](A)p.[s4r](A)p.[s4r](A)p.[s4r](C)p.r(A)p.r(U)p.r(G)p.r(C)p.r(A)p.r(G)p.r(A)p.r(A)p.r(A)p.r(A)p.r(U)p.[s4r](G)p.[s4r](C)p.[s4r](U)p.[s4r](G)p.r(T)p.r(T)}|RNA2{r(C)p.r(A)p.r(G)p.r(C)p.r(A)p.r(U)p.r(U)p.r(U)p.r(U)p.r(C)p.r(U)p.r(G)p.r(C)p.r(A)p.r(U)p.r(G)p.r(U)p.[s4r](U)p.[s4r](U)p.r(T)p.r(T)}$$$RNA1{StrandType:ss}|RNA2{StrandType:as}$” had a target mRNA knockdown of 85.5%. For “RNA1{[s4r](A)p.[s4r](A)p.[s4r](A)p.[s4r](C)p.r(A)p.r(U)p.r(G)p.r(C)p.r(A)p.r(G)p.r(A)p.r(A)p.r(A)p.r(A)p.r(U)p.[s4r](G)p.[s4r](C)p.[s4r](U)p.[s4r](G)p.r(T)p.r(T)}|RNA2{r(C)p.r(A)p.r(G)p.r(C)p.r(A)p.r(U)p.r(U)p.r(U)p.r(U)p.r(C)p.r(U)p.r(G)p.r(C)p.r(A)p.r(U)p.r(G)p.r(U)p.r(U)p.r(U)p.r(T)p.r(T)}$$$RNA1{StrandType:ss}|RNA2{StrandType:as}$”, the target mRNA knockdown came out at 79.1%.

Substance “RNA1{[s4r](A)p.[s4r](A)p.[s4r](A)p.[s4r](C)p.r(A)p.r(U)p.r(G)p.r(C)p.r(A)p.r(G)p.r(A)p.r(A)p.r(A)p.r(A)p.r(U)p.r(G)p.r(C)p.r(U)p.r(G)p.r(T)p.r(T)}|RNA2{[s4r](C)p.[s4r](A)p.r(G)p.r(C)p.r(A)p.r(U)p.r(U)p.r(U)p.r(U)p.r(C)p.r(U)p.r(G)p.r(C)p.r(A)p.r(U)p.r(G)p.r(U)p.[s4r](U)p.[s4r](U)p.r(T)p.r(T)}$$$RNA1{StrandType:ss}|RNA2{StrandType:as}$” showed a target mRNA knockdown of 60.2%.

“RNA1{[s4r](A)p.[s4r](A)p.[s4r](A)p.[s4r](C)p.r(A)p.r(U)p.r(G)p.r(C)p.r(A)p.r(G)p.r(A)p.r(A)p.r(A)p.r(A)p.r(U)p.r(G)p.r(C)p.r(U)p.r(G)p.r(T)p.r(T)}|RNA2{r(C)p.r(A)p.r(G)p.r(C)p.r(A)p.r(U)p.r(U)p.r(U)p.r(U)p.r(C)p.r(U)p.r(G)p.r(C)p.r(A)p.r(U)p.[s4r](G)p.[s4r](U)p.[s4r](U)p.[s4r](U)p.r(T)p.r(T)}$$$RNA1{StrandType:ss}|RNA2{StrandType:as}$” showed a target mRNA knockdown of 80.7%.
